Data reported in US20240116892A1, “HETEROCYCLIC AMIDE AND UREA COMPOUNDS AS JAK2 INHIBITORS” (Ajax Therapeutics, Inc., priority 2022, published 2024).

Target: JAK2 (JH1 domain-catalytic, Y1007F, Y1008F) kinase (Homo sapiens (Human), UniProt O60674, Y1007F/Y1008F)
Test: JAK2 JH1 Domain Binding Assay
Details: qPCR readout
Method: JAK2 (JH1 domain-catalytic, Y1007F, Y1008F) kinase was expressed as N-terminal fusion to the DNA binding domain of NFkB in transiently transfected HEK293 cells and subsequently tagged with DNA for qPCR detection. Streptavidin-coated magnetic beads were treated with biotinylated small molecule ligands for 30 minutes at room temperature to generate affinity resins for kinase assays. The liganded beads were blocked with excess biotin and washed with blocking buffer (SeaBlock (Pierce), 1% BSA, 0.05% Tween 20, 1 mmol/L DTT) to remove unbound ligand and to reduce nonspecific phage binding. Binding reactions were assembled by combining kinases, liganded affinity beads, and test compounds in 1× binding buffer (1× PBS, 0.05% Tween 20, 0.1% BSA, 1 mmol/L DTT). Test compound was prepared as 111× stocks in 100% DMSO and directly diluted into the assay wells. All reactions were performed in polypropylene 384-well plates in a final volume of 0.02 mL. The assay plates were incubated at room temperature with shaking for 1 hour and the affinity beads were washed with wash buffer (1× PBS, 0.05% Tween 20). The beads were then re-suspended in elution buffer (1× PBS, 0.05% Tween 20, 0.5 μmol/L non-biotinylated affinity ligand) and incubated at room temperature with shaking for 30 minutes. The kinase concentration in the eluate was measured by qPCR.

Sequence of JAK2 (JH1 domain-catalytic, Y1007F, Y1008F) kinase (O60674 849-1124 Y1007F/Y1008F): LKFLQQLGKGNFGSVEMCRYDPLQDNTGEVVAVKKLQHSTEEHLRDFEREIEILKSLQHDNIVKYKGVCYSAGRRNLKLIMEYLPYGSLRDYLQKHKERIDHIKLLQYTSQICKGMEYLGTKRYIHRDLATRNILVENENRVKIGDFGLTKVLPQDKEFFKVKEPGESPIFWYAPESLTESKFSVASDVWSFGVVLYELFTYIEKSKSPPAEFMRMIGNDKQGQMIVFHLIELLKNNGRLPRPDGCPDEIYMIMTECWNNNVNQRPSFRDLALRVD

| Kd | Molecule |
| --- | --- |
| < 10 nM | CN(C(=O)Nc1cc(C(F)(F)F)cn(C)c1=O)[C@@H]1CC=C(c2cnc3[nH]cc(N4CCOCC4)c3n2)CC1.CN(C(=O)Nc1cc(C(F)(F)F)cn(C)c1=O)[C@H]1CC=C(c2cnc3[nH]cc(N4CCOCC4)c3n2)CC1 (mixture of isomers) [Example I-165-a, (S)-1-methyl-3-(1-methyl-2-oxo-5-(trifluoromethyl)-1,2-dihydropyridin-3-yl)-1-(4-(7-morpholino-5H-pyrrolo[2,3-b]pyrazin-2-yl)cyclohex-3-en-1-yl)urea and (R)-1-methyl-3-(1-methyl-2-oxo-5-(trifluoromethyl)-1,2-dihydropyridin-3-yl)-1-(4-(7-morpholino-5H-pyrrolo[2,3-b]pyrazin-2-yl)cyclohex-3-en-1-yl)urea] |
| < 10 nM | CN(C(=O)Nc1cc(C(F)(F)F)cn(C)c1=O)C12CC(c3cnc4[nH]nc(OC5CCOC5)c4c3)(C1)C2 (mixture of isomers) [Example I-166, (S)-1-methyl-3-(1-methyl-2-oxo-5-(trifluoromethyl)-1,2-dihydropyridin-3-yl)-1-(3-(3-((tetrahydrofuran-3-yl)oxy)-1H-pyrazolo[3,4-b]pyridin-5-yl)bicyclo[1.1.1]pentan-1-yl)urea and (R)-1-methyl-3-(1-methyl-2-oxo-5-(trifluoromethyl)-1,2-dihydropyridin-3-yl)-1-(3-(3-((tetrahydrofuran-3-yl)oxy)-1H-pyrazolo[3,4-b]pyridin-5-yl)bicyclo[1.1.1]pentan-1-yl)urea] |
| 50 to 1000 nM | CN(C(=O)Nc1cc(C(F)(F)F)cn(C)c1=O)[C@@H]1CCN(c2cnc3[nH]ncc3c2)C[C@H]1OC(F)F.CN(C(=O)Nc1cc(C(F)(F)F)cn(C)c1=O)[C@H]1CCN(c2cnc3[nH]ncc3c2)C[C@@H]1OC(F)F (mixture of isomers) [Example I-167-a, 1-((3S,4S)-3-(difluoromethoxy)-1-(1H-pyrazolo[3,4-b]pyridin-5-yl)piperidin-4-yl)-1-methyl-3-(1-methyl-2-oxo-5-(trifluoromethyl)-1,2-dihydropyridin-3-yl)urea and 1-((3R,4R)-3-(difluoromethoxy)-1-(1H-pyrazolo[3,4-b]pyridin-5-yl)piperidin-4-yl)-1-methyl-3-(1-methyl-2-oxo-5-(trifluoromethyl)-1,2-dihydropyridin-3-yl)urea] |
| < 10 nM | CC(=O)Nc1c[nH]c2ncc(N3CC[C@H](N(C)C(=O)Nc4cc(C(F)(F)F)cn(C)c4=O)C(F)(F)C3)cc12 (mixture of isomers) [Example I-172-b, (R)—N-(5-(3,3-difluoro-4-(1-methyl-3-(1-methyl-2-oxo-5-(trifluoromethyl)-1,2-dihydropyridin-3-yl)ureido)piperidin-1-yl)-1H-pyrrolo[2,3-b]pyridin-3-yl)acetamide and (S)—N-(5-(3,3-difluoro-4-(1-methyl-3-(1-methyl-2-oxo-5-(trifluoromethyl)-1,2-dihydropyridin-3-yl)ureido)piperidin-1-yl)-1H-pyrrolo[2,3-b]pyridin-3-yl)acetamide] |
| 10 to 50 nM | CN(C(=O)Nc1cc(C(F)(F)F)cn(C)c1=O)[C@@H]1CCN(c2cnccn2)CC1(F)F (single isomer, unassigned) [Example I-22-a] |
| 10 to 50 nM | CN(C(=O)Nc1cc(C(F)(F)F)cn(C)c1=O)[C@H]1CCN(c2cnccn2)CC1(F)F (single isomer, unassigned) [Example I-22-b] |
| < 10 nM | CN(C(=O)Nc1cc(C(F)(F)F)cn(C)c1=O)[C@@H]1CCN(c2cnc3[nH]ccc3n2)CC1(F)F (single isomer, unassigned) [Example I-27-a] |
| < 10 nM | Cc1c[nH]c2ncc(N3CCC(N(C)C(=O)Nc4cc(C(F)(F)F)cn(C)c4=O)C(F)(F)C3)nc12 (single isomer, unassigned) [Example I-33-a, (R)- or (S)-1-(3,3-difluoro-1-(7-methyl-5H-pyrrolo[2,3-b]pyrazin-2-yl)piperidin-4-yl)-1-methyl-3-(1-methyl-2-oxo-5-(trifluoromethyl)-1,2-dihydropyridin-3-yl)urea] |
| < 10 nM | Cc1c[nH]c2ncc(N3CCC(N(C)C(=O)Nc4cc(C(F)(F)F)cn(C)c4=O)C(F)(F)C3)nc12 (single isomer, unassigned) [Example I-33-b, (S)- or (R)-1-(3,3-difluoro-1-(7-methyl-5H-pyrrolo[2,3-b]pyrazin-2-yl)piperidin-4-yl)-1-methyl-3-(1-methyl-2-oxo-5-(trifluoromethyl)-1,2-dihydropyridin-3-yl)urea] |
| < 10 nM | CC(=O)Nc1cnc(N2CC[C@@H](N(C)C(=O)Nc3cc(C(F)(F)F)cn(C)c3=O)C(F)(F)C2)cn1 (single isomer, unassigned) [Example I-35-a] |
| < 10 nM | CC(=O)Nc1cnc(N2CC[C@H](N(C)C(=O)Nc3cc(C(F)(F)F)cn(C)c3=O)C(F)(F)C2)cn1 (single isomer, unassigned) [Example I-35-b] |

More lines, now with the values behind:

| Molecule | Kd |
| --- | --- |
| 1-(1-(3-((1R,2R)-2-hydroxycyclobutoxy)-1H-pyrazolo[3,4-b]pyridin-5-yl)piperidin-4-yl)-1-methyl-3-(1-methyl-2-oxo-5-(trifluoromethyl)-1,2-dihydropyridin-3-yl)urea and 1-(1-(3-((1S,2S)-2-hydroxycyclobutoxy)-1H-pyrazolo[3,4-b]pyridin-5-yl)piperidin-4-yl)-1-methyl-3-(1-methyl-2-oxo-5-(trifluoromethyl)-1,2-dihydropyridin-3-yl)urea [Example I-184-a] | 50 to 1000 nM |
| 1-(1-(3-((1R,2R)-2-hydroxycyclobutoxy)-1H-pyrazolo[3,4-b]pyridin-5-yl)piperidin-4-yl)-1-methyl-3-(1-methyl-2-oxo-5-(trifluoromethyl)-1,2-dihydropyridin-3-yl)urea and 1-(1-(3-((1S,2S)-2-hydroxycyclobutoxy)-1H-pyrazolo[3,4-b]pyridin-5-yl)piperidin-4-yl)-1-methyl-3-(1-methyl-2-oxo-5-(trifluoromethyl)-1,2-dihydropyridin-3-yl)urea [Example I-184-b] | 1000 to 5000 nM |
| CN(C(=O)Nc1cc(C(F)(F)F)ccn1)[C@@H]1CCN(c2cnc3[nH]ncc3c2)CC1(F)F (mixture of isomers) [Example I-146-a, (R)-1-(3,3-difluoro-1-(1H-pyrazolo[3,4-b]pyridin-5-yl)piperidin-4-yl)-1-methyl-3-(4-(trifluoromethyl)pyridin-2-yl)urea and (S)-1-(3,3-difluoro-1-(1H-pyrazolo[3,4-b]pyridin-5-yl)piperidin-4-yl)-1-methyl-3-(4-(trifluoromethyl)pyridin-2-yl)urea] | < 10 nM |
| CN(C(=O)Nc1cc(C(F)(F)F)ccn1)[C@H]1CCN(c2cnc3[nH]ncc3c2)CC1(F)F (mixture of isomers) [Example I-146-b, (R)-1-(3,3-difluoro-1-(1H-pyrazolo[3,4-b]pyridin-5-yl)piperidin-4-yl)-1-methyl-3-(4-(trifluoromethyl)pyridin-2-yl)urea and (S)-1-(3,3-difluoro-1-(1H-pyrazolo[3,4-b]pyridin-5-yl)piperidin-4-yl)-1-methyl-3-(4-(trifluoromethyl)pyridin-2-yl)urea] | < 10 nM |
| CN(C(=O)Nc1cncc(C(F)(F)F)c1)[C@@H]1CCN(c2cnc3[nH]ncc3c2)CC1(F)F.CN(C(=O)Nc1cncc(C(F)(F)F)c1)[C@H]1CCN(c2cnc3[nH]ncc3c2)CC1(F)F (mixture of isomers) [Example I-147-a, (R)-1-(3,3-difluoro-1-(1H-pyrazolo[3,4-b]pyridin-5-yl)piperidin-4-yl)-1-methyl-3-(5-(trifluoromethyl)pyridin-3-yl)urea and (S)-1-(3,3-difluoro-1-(1H-pyrazolo[3,4-b]pyridin-5-yl)piperidin-4-yl)-1-methyl-3-(5-(trifluoromethyl)pyridin-3-yl)urea] | < 10 nM |
| CC(=O)Nc1c[nH]c2ncc(N3CC[C@@H](N(C)C(=O)Nc4cc(C(F)(F)F)cn(C)c4=O)C(F)(F)C3)cc12 (mixture of isomers) [Example I-172-a, (R)—N-(5-(3,3-difluoro-4-(1-methyl-3-(1-methyl-2-oxo-5-(trifluoromethyl)-1,2-dihydropyridin-3-yl)ureido)piperidin-1-yl)-1H-pyrrolo[2,3-b]pyridin-3-yl)acetamide and (S)—N-(5-(3,3-difluoro-4-(1-methyl-3-(1-methyl-2-oxo-5-(trifluoromethyl)-1,2-dihydropyridin-3-yl)ureido)piperidin-1-yl)-1H-pyrrolo[2,3-b]pyridin-3-yl)acetamide] | < 10 nM |
| CN(C(=O)Nc1cc(C(F)(F)F)cn(C)c1=O)[C@H]1CCN(c2cnc3[nH]ccc3n2)CC1(F)F (single isomer, unassigned) [Example I-27-b] | < 10 nM |
| CN(C(=O)Nc1cc(C(F)(F)F)cn(C)c1=O)[C@@H]1CCN(c2cnc(NC(=O)C3CC3)cn2)CC1(F)F (single isomer, unassigned) [Example I-34-a] | < 10 nM |
| CN(C(=O)Nc1cc(C(F)(F)F)cn(C)c1=O)[C@H]1CCN(c2cnc(NC(=O)C3CC3)cn2)CC1(F)F (single isomer, unassigned) [Example I-34-b] | < 10 nM |
| Cc1n[nH]c2ncc(N3CCC(N(C)C(=O)Nc4cc(C(F)(F)F)cn(C)c4=O)C(F)(F)C3)cc12 (single isomer, unassigned) [Example I-36-a, (R)- or (S)-1-(3,3-difluoro-1-(3-methyl-1H-pyrazolo[3,4-b]pyridin-5-yl)piperidin-4-yl)-1-methyl-3-(1-methyl-2-oxo-5-(trifluoromethyl)-1,2-dihydropyridin-3-yl)urea] | < 10 nM |
